These results are taken from patent publication US20230226227A1, “PROSTATE SPECIFIC MEMBRANE ANTIGEN (PSMA) LIGANDS AND USES THEREOF” (ADVANCED ACCELERATOR APPLICATIONS (ITALY) SRL, priority 2019, published 2023).

A short description of series [1]: Plasma protein binding by ultrafiltration, minipig plasma. The series is classed as in vitro ADME. Conditions: read-out: fu (%) fraction unbound. As for the experimental part:
(§1) Plasma protein binding of PSMA-R2 and ^175Lu-PSMA-R2 has been determined by ultrafiltration method, after incubation of the compounds in human, mouse, rat and minipig plasma at two different concentrations: 1 and 5 µg/mL.

Series [2] is described as follows: Plasma protein binding by ultrafiltration, rat plasma. Conditions: read-out: fu (%) fraction unbound. The series is classed as in vitro ADME. Here is the method:
as §1

The nature of series [3]: Plasma protein binding by ultrafiltration, human plasma. The class given is in vitro ADME. As to conditions: human plasma. As for the experimental part: as §1
Series [4] in a line: In vitro stability in plasma (human). As to conditions: 37° C., after 2 hours. The class given is in vitro ADME. Here is the method:
Stability of PSMA-R2 ligand was assessed in vitro after incubation with plasma from four different species (mouse, rat, mini-pig and human). PSMA-R2 was incubated at 37° C. in the different matrices, at a final concentration of 10 µg/mL, for 30, 60 and 120 minutes. The samples were analyzed by LC-MS/MS method.

Series [5] can be described thus: Plasma protein binding by ultrafiltration, mouse plasma. The class given is in vitro ADME. As for the experimental part:
as §1

Series [6] is described as follows: In vivo distribution in healthy CD-1 mice. On the set-up: species or system CD-1 healthy mice. Here is the method: In vivo distribution studies were performed in CD-1 healthy mice using Ga-labelled PSMA-R2, which was administered intravenously at a dose of 120-150 µCi (4.44 - 5.55 MBq). At specific time points after intravenous injection, animals (3 or 4/group) were sacrificed, organs collected, weighted and evaluated in a gamma counter.

The subject of series [7] is PC-3 PSMA positive and PSMA negative tumor xenografts. The series can be described thus: In vivo distribution in tumor models (PSMA positive PIP and negative Flu xenografts). On the set-up: species or system athymic nude male mice. Conditions: for Salivary glands uptake: 0.5 h post injection; for Kidney uptake / Tumor uptake / Tumor-to-kidney ratio: 1 h post injection. Here is the method:
Athymic nude male mice bearing the PC-3 PSMA positive and PSMA negative tumor xenografts were injected with approximately 4.5 MBq of ^68Ga-PSMA-R2, and subsequently assessed for biodistribution and imaging studies. At 4 time points (30 min, 1 h, 2 h and 4 h) post injection (p.i.), tumor and organ uptake was determined using a gamma-counter. To assess receptor-specificity additional groups of animals were coinjected with an excess of unlabeled PSMA-R2 (40 nmol).
The same study was performed with ^68Ga-PSMA-cpd 2, a comparative compound of the following formula: […]

Series [8] has as its system PC3-PIP (PSMA positive) tumor. The series can be described thus: In vivo efficacy in PC3-PIP PSMA positive model. The arrangement: species or system mice. As to conditions: single injection of 111 MBq; p<0.001. As for the experimental part: An efficacy study was conducted in a prostate cancer model using Lu-labelled PSMA-R2).
Mice bearing PC3-PIP (PSMA positive) tumor were injected once with 111 MBq of ^177Lu-PSMA-R2, ^177Lu-PSMA-617, included as reference compound, or with saline (control).
Tumor volume is expressed either as an absolute value (mm^3) or relatively to the volume measured at the time of the first injection.

Where [9] appears, read: 1 µg/mL, read-out: fu (%) fraction unbound.
Where [10] appears, read: 5 µg/mL, read-out: fu (%) fraction unbound.
Where [11] appears, read: 1 and 5 µg/mL, read-out: Unbound fraction, range over labelled and unlabelled form.

Usually fraction unbound stands for the share of the substance not bound to proteins or other matrix. For the compound `O=C(O)CCC(NC(=O)NC(CCCCN(Cc1ccc(Br)cc1)C(=O)CCCCCNC(=O)CN1CCN(CC(=O)O)CCN(CC(=O)O)CCN(CC(=O)O)CC1)C(=O)O)C(=O)O` (stereo not shown) [PSMA-R2], the free fraction (fraction unbound) at 1 µg/mL in series [1] (1 µg/mL) came out at 0.407 ± 0.043; in series [2] (1 µg/mL), 0.256 ± 0.018; in series [3] (setting [9]), 0.299 ± 0.046; in series [5] (setting [9]), 0.862 ± 0.111. Further, the fraction unbound at 5 µg/mL in series [1] (5 µg/mL) came to 0.353 ± 0.085; in series [2] (5 µg/mL), 0.226 ± 0.011; in series [3] (setting [10]) it was 0.23 ± 0.005; in series [5] (setting [10]), 0.727 ± 0.015. Further, the fraction unbound in series [3] (setting [11]) lay within 0.25 to 0.45; in series [5] (setting [11]) it was 0.7 to 0.86. Besides, the recovery at 2 h, 10 µg/mL in series [4] is 85%.
Compound `O=C(O)CCC(NC(=O)NC(CCCCN(Cc1ccc(Br)cc1)C(=O)CCCCCNC(=O)CN1CCN(CC(=O)O)CCN(CC(=O)O)CCN(CC(=O)O)CC1)C(=O)O)C(=O)O.[68Ga]` (stereo not shown) [^68Ga-PSMA-R2] had a Liver uptake in series [6] (30 minutes after intravenous injection) of 0.74%. The compound also registered a Liver uptake in series [6] (4 hours after intravenous injection) of 0.21%. Further, in series [6] (all time-points), the “Radiotracer uptake in remaining organs (intestine, pancreas, muscle, bone)” value is “Low”. For the same compound, the “Radiotracer uptake in blood, adrenals, lungs, thyroid” value in series [6] (earliest time-point (30 min), decreased rapidly later) is “slightly high”. In series [6] (intravenous), the “Excretion route (uptake in kidneys and bladder)” value is listed as “excreted through the renal system”. For the same compound, in series [7], the Salivary glands uptake was 0.81% (0.5 h), the Kidney uptake is given as 6% (1 h), the Tumor uptake was 29% (1 h) and the Tumor-to-kidney ratio is reported as 5 (1 h).
Take `O=C(O)CC[C@H](NC(=O)N[C@@H](CCCCN(Cc1ccc(Br)cc1)C(=O)CCCCNC(=O)CN1CCN(CC(=O)O)CCN(CC(=O)O)CCN(CC(=O)O)CC1)C(=O)O)C(=O)O.[68Ga]` [^68Ga-PSMA-cpd2, reference compound]: in series [7], the Salivary glands uptake is on record as 0.95% (0.5 h), the Kidney uptake is 13% (1 h), the Tumor uptake was 36% (1 h) and the Tumor-to-kidney ratio is 3 (1 h).
Turning to `O=C([O-])CN1CCN(CC(=O)[O-])CCN(CC(=O)NCC2CCC(C(=O)N[C@@H](Cc3ccc4ccccc4c3)C(=O)NCCCC[C@H](NC(=O)N[C@@H](CCC(=O)O)C(=O)O)C(=O)O)CC2)CCN(CC(=O)[O-])CC1.[177Lu+3]` (stereo partly shown) [^177Lu-PSMA-617, reference compound], in series [8], the “Absolute tumor volume in comparison to control group” value is listed as “significantly reduced” and the “Relative tumor volume in comparison to control group” value is on record as “significantly reduced”.
With `O=C([O-])CN1CCN(CC(=O)[O-])CCN(CC(=O)NCCCCCC(=O)N(CCCC[C@H](NC(=O)N[C@@H](CCC(=O)O)C(=O)O)C(=O)O)Cc2ccc(Br)cc2)CCN(CC(=O)[O-])CC1.[177Lu+3]` [^177Lu-PSMA-R2], in series [8], the “Absolute tumor volume in comparison to control group” value is recorded as “significantly reduced” and the “Relative tumor volume in comparison to control group” value is recorded as “significantly reduced”.
